# Test results taken from patent US4016259A, “Contraceptive polypeptides” (Research Corporation, priority 1975, dated 1977).
# Peptide text beside a SMILES is read from it.
# What was measured:
# Hamster = assay: Female Anti-Fertility test (Table I), implants counted at autopsy; assay type: in vivo; details: subc., saline, days (-4)-(-1), autopsy day 10
# Procedure: In one study carried out with hamsters Thr-Pro-Arg-Lys as the diacetate was administered subcutaneously in isotonic solution at dosage levels of 2, […], once daily starting on the day of postovulatory discharge (-4) prior to mating. Treatment was continued until the fourth day after ovulation. The animals were mated and then sacrificed on the tenth day. The uterus was opened, and the number of implants counted.
# TEST Female Anti-Fertility
# ROUTE OF ADMINISTRATION Subc.
# Once daily for four days, starting on the day
# of postovulatory discharge, prior to mating.
# hamsters = assay: Control of pregnancy in hamsters, compound in phosphate buffer pH 7.1 subcutaneously or orally; assay type: in vivo, hamster
smiles,measurement,setting,value
"C[C@@H](O)[C@H](N)C(=O)N1CCC[C@H]1C(=O)N[C@@H](CCCNC(=N)N)C(=O)N[C@@H](CCCCN)C(=O)O [Thr-Pro-Arg-Lys, threonyl-prolyl-arginyl-lysine] (H-TPRK-OH)",Average No. of Implants,Hamster; daily dose 2.0 μg/100 mg,0.5
same,Total No. of Normal Fetuses,Hamster; daily dose 2.0 μg/100 mg,5
same,Total No. of Resorbing Fetuses,Hamster; daily dose 2.0 μg/100 mg,0
same,No. of Animals with Implantations,"Hamster; daily dose 2.0 μg/100 mg, 10/10 sperm +",1
same,Average No. of Implants,Hamster; daily dose 10.0 μg/100 mg,4.6
same,Total No. of Normal Fetuses,Hamster; daily dose 10.0 μg/100 mg,46
same,Total No. of Resorbing Fetuses,Hamster; daily dose 10.0 μg/100 mg,3
same,No. of Animals with Implantations,"Hamster; daily dose 10.0 μg/100 mg, 10/10 sperm +",4
same,Average No. of Implants,Hamster; daily dose 100.0 μg/100 mg,5.9
same,Total No. of Normal Fetuses,Hamster; daily dose 100.0 μg/100 mg,53
same,Total No. of Resorbing Fetuses,Hamster; daily dose 100.0 μg/100 mg,1
same,No. of Animals with Implantations,"Hamster; daily dose 100.0 μg/100 mg, 9/10 sperm +",4
same,number of pregnancies,hamsters; administered orally at 35 to 50 μg/100 gm/day,reduced to zero
same,number of implantations per animal,"hamsters; subcutaneous, phosphate buffer pH 7.1, at 0.7 mcg/gm/day",less than one
same,effective dose (number of implantations per animal reduced to less than one),"hamsters; subcutaneous, phosphate buffer pH 7.1, calculated as free base",0.7 mcg/gm/day
